Data on 10 compounds can be found in patent publication US11926613B2, “Kinase inhibitors for the treatment of central and peripheral nervous system disorders” (UNIVERSITY OF MIAMI, priority 2017, dated 2024).

Where two headings read alike, the source gives them in different places.

For one test, the system named is Primary Neurons. In words: HCS neurite outgrowth assay (High Content Screening with Primary Neurons). It counts as cell-based.
The test system of test [1] is neurons from hippocampi of E18 rat embryos. Put plainly: Neurite growth length (% NTL) in cultured E18 rat hippocampal neurons, 9-point dose response, 48 hours. It counts as cell-based. The following applies: for activity at 0.078 µM / activity at 0.156 µM / activity at 0.312 µM / activity at 0.625 µM / activity at 1.25 µM / activity at 2.5 µM / activity at 5 µM / activity at 10 µM / activity at 20 µM: Rattus norvegicus, Neuron, 48 h. The method in brief:
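Dissociated E18 rat hippocampal neurons at 1500 cells/well on PDL were exposed 48 h to 9 concentrations from 20 μM down to 0.078125 μM. After PFA fixation and βIII-tubulin/Hoechst staining, ArrayScan imaging traced neurites in at least 200–300 neurons per condition to give % NTL.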

As for `COc1ccc(OC)c(C(=O)c2ccc(C(=O)N[C@@H]3CCC[C@H]3NC(=O)c3ccncc3)cc2)c1F` [Example A17, N-[(1R,2R)-2-[4-(2-fluoro-3,6-dimethoxybenzoyl)benzamido]cyclopentyl] pyridine-4-carboxamide], in the test with Primary Neurons (Primary neuron), the EC50 amounted to 1.83 µM. Besides, the activity at 0.078 µM in test [1] (78 nM) came to 99.7%. Besides, the activity at 0.156 µM in test [1] (156 nM) stood at 100%. Further, the activity at 0.312 µM in test [1] (312 nM) came out at 104%. In addition, the activity at 0.625 µM in test [1] (625 nM) is 99.8%. Also, the activity at 1.25 µM in test [1] (1.25 μM) came out at 103%. In test [1] (2.5 μM), the activity at 2.5 µM worked out at 113%. Moreover, in test [1] (5 μM), the activity at 5 µM came to 112%. The activity at 10 µM in test [1] (10 μM) was 121%. Moreover, the activity at 20 µM in test [1] (20 μM) was determined as 119%.

In the test with Primary Neurons, “N[(3R,4R)-4-{4-[(2-fluoro-6-hydroxy-3- methoxyphenyl)methyl]benzamido}pyrrolidin- 3-yl]pyridine-4-carboxamide [Example A55]” gave an EC50 of 4.74 µM. Besides, the “neurite growth length (% NTL)” value in test [1] (78 nM) came to 85.02 % NTL; in test [1] (156 nM), 77.96 % NTL; in test [1] (312 nM), 80.06 % NTL; in test [1] (625 nM) it was 76.79 % NTL; in test [1] (1.25 μM), 81.96 % NTL; in test [1] (2.5 μM), 90.13 % NTL. In addition, the “neurite growth length (% NTL)” value in test [1] (5 μM) worked out at 93.58 % NTL; in test [1] (10 μM), 98.77 % NTL; in test [1] (20 μM), 96.04 % NTL.

In turn, `O=C(N[C@@H]1CNC[C@H]1NC(=O)c1ccc2[nH]ncc2c1)c1ccc(C(=O)c2c(O)cccc2F)cc1` [Example A49, N-[(3R,4R)-4-[4-(2-fluoro-6-hydroxybenzoyl)benzamido]pyrrolidin-3-yl]-1H-indazole-5-carboxamide] came in with an EC50 with Primary Neurons (Primary neuron) of 2.46 µM. Besides, in test [1] (78 nM), the activity at 0.078 µM was 107%. The activity at 0.156 µM in test [1] (156 nM) turned out to be 99.5%. The activity at 0.312 µM in test [1] (312 nM) worked out at 101%. Moreover, the activity at 0.625 µM in test [1] (625 nM) worked out at 112%. In test [1] (1.25 μM), the activity at 1.25 µM turned out to be 139%. Further, in test [1] (2.5 μM), the activity at 2.5 µM was 200%. The activity at 5 µM in test [1] (5 μM) was 298%. For the same compound, in test [1] (10 μM), the activity at 10 µM was found to be 322%. For the same compound, the activity at 20 µM in test [1] (20 μM) was 207%.

Take `O=C(N[C@@H]1CNC[C@H]1NC(=O)c1ccc(C(=O)c2cccc(Cl)c2O)cc1)c1ccncc1` [Example A71, N-[(3R,4R)-4-[4-(3-chloro-2-hydroxybenzoyl)benzamido]pyrrolidin-3-yl]pyridine-4-carboxamide]: the EC50 with Primary Neurons (Primary neuron) was determined as 2.15 µM. Further, in test [1] (78 nM), the activity at 0.078 µM is 94.8%. The activity at 0.156 µM in test [1] (156 nM) is 99%. The activity at 0.312 µM in test [1] (312 nM) was found to be 105%. In addition, in test [1] (625 nM), the activity at 0.625 µM is 109%. Further, the activity at 1.25 µM in test [1] (1.25 μM) turned out to be 102%. The activity at 2.5 µM in test [1] (2.5 μM) stood at 109%. Moreover, the activity at 5 µM in test [1] (5 μM) was determined as 119%. The activity at 10 µM in test [1] (10 μM) was 117%. Also, the activity at 20 µM in test [1] (20 μM) was 124%.

Compound `COc1ccc(O)c(C(=O)c2ccc(C(=O)N[C@@H]3CNC[C@H]3NC(=O)c3ccncn3)cc2)c1F` [Example A41, N-[(3R,4R)-4-[4-(2-fluoro-6-hydroxy-3-methoxybenzoyl)benzamido]pyrrolidin-3-yl]pyrimidine-4-carboxamide] showed a 50% effective concentration (EC50) with Primary Neurons (Primary neuron) of 11 µM. Besides, in test [1] (78 nM), the activity at 0.078 µM was 91.3%. In addition, the activity at 0.156 µM in test [1] (156 nM) stood at 88.5%. Also, the activity at 0.312 µM in test [1] (312 nM) turned out to be 86.2%. Further, the activity at 0.625 µM in test [1] (625 nM) stood at 87%. In test [1] (1.25 μM), the activity at 1.25 µM is 95.9%. For the same compound, in test [1] (2.5 μM), the activity at 2.5 µM amounted to 102%. Moreover, in test [1] (5 μM), the activity at 5 µM was determined as 124%. Further, the activity at 10 µM in test [1] (10 μM) turned out to be 152%. The activity at 20 µM in test [1] (20 μM) turned out to be 190%.

`COc1ccc(OC)c(C(=O)c2ccc(C(=O)Nc3ccccc3NC(=O)c3ccncc3)cc2)c1F` [Example A4, N-{2-[4-(2-fluoro-3,6-dimethoxybenzoyl)benzamido]phenyl}pyridine-4-carboxamide] showed an EC50 in the test on Primary Neurons (Primary neuron) of 9.64 µM. Further, the activity at 0.078 µM in test [1] (78 nM) came out at 102%. The activity at 0.156 µM in test [1] (156 nM) came out at 99%. In addition, the activity at 0.312 µM in test [1] (312 nM) stood at 110%. In test [1] (625 nM), the activity at 0.625 µM worked out at 93.2%. The activity at 1.25 µM in test [1] (1.25 μM) came out at 105%. Further, the activity at 2.5 µM in test [1] (2.5 μM) came out at 114%. Also, the activity at 5 µM in test [1] (5 μM) was determined as 114%. For the same compound, the activity at 10 µM in test [1] (10 μM) amounted to 132%. For the same compound, the activity at 20 µM in test [1] (20 μM) amounted to 161%.

With `COc1ccc(O)c(C(=O)c2ccc(C(=O)N[C@@H]3c4ccccc4C[C@H]3NC(=O)c3ccncc3)cc2)c1F` [Example A14, N-[(1R,2R)-1-[4-(2-fluoro-6-hydroxy-3-methoxybenzoyl)benzamido]-2,3-dihydro-1H-inden-2-yl]pyridine-4-carboxamide], the EC50 in the test with Primary Neurons (Primary neuron) is > 20 µM. In addition, the activity at 0.078 µM in test [1] (78 nM) came to 105%. For the same compound, the activity at 0.156 µM in test [1] (156 nM) was found to be 111%. For the same compound, the activity at 0.312 µM in test [1] (312 nM) came to 118%. Moreover, in test [1] (625 nM), the activity at 0.625 µM is 119%. Further, the activity at 1.25 µM in test [1] (1.25 μM) worked out at 127%. For the same compound, in test [1] (2.5 μM), the activity at 2.5 µM stood at 126%. The activity at 5 µM in test [1] (5 μM) was determined as 140%. The activity at 10 µM in test [1] (10 μM) came to 154%. Further, the activity at 20 µM in test [1] (20 μM) turned out to be 175%.

Consider `COc1ccc(OC)c(C(=O)c2ccc(C(=O)Nc3ccncc3NC(=O)c3ccncc3)cc2)c1F` [Example A1, N-{4-[4-(2-fluoro-3,6-dimethoxybenzoyl)benzamido]pyridin-3-yl}pyridine-4-carboxamide], for which the half-maximal effective concentration (EC50) with Primary Neurons (Primary neuron) is 9.34 µM. Also, the activity at 0.078 µM in test [1] (78 nM) came out at 89.9%. The activity at 0.156 µM in test [1] (156 nM) is 89%. The activity at 0.312 µM in test [1] (312 nM) came to 89.6%. Moreover, in test [1] (625 nM), the activity at 0.625 µM came to 91%. Besides, the activity at 1.25 µM in test [1] (1.25 μM) was 93.5%. Moreover, the activity at 2.5 µM in test [1] (2.5 μM) stood at 85.8%. In test [1] (5 μM), the activity at 5 µM came out at 92.9%. Besides, the activity at 10 µM in test [1] (10 μM) is 87%. Moreover, the activity at 20 µM in test [1] (20 μM) stood at 84.6%.

`O=C(N[C@@H]1CNC[C@H]1NC(=O)c1ccc(C(=O)c2ccccc2O)cc1Cl)c1ccncc1` [Example A65, N-[(3R,4R)-4-[2-chloro-4-(2-hydroxybenzoyl)benzamido]pyrrolidin-3-yl]pyridine-4-carboxamide] came in with a concentration for a half-maximal effect (EC50) in the test on Primary Neurons (Primary neuron) of 7.11 µM. Moreover, in test [1] (78 nM), the activity at 0.078 µM came to 108%. The activity at 0.156 µM in test [1] (156 nM) worked out at 117%. Moreover, the activity at 0.312 µM in test [1] (312 nM) was found to be 123%. In addition, the activity at 0.625 µM in test [1] (625 nM) amounted to 113%. The activity at 1.25 µM in test [1] (1.25 μM) was 126%. For the same compound, the activity at 2.5 µM in test [1] (2.5 μM) worked out at 129%. Moreover, the activity at 5 µM in test [1] (5 μM) was 128%. For the same compound, the activity at 10 µM in test [1] (10 μM) worked out at 150%. The activity at 20 µM in test [1] (20 μM) is 161%.

`COc1ccc(O)c(C(=O)c2ccc(C(=O)Nc3ccccc3NC(=O)c3ccncc3)cc2)c1F` [Example A5, N-{2-[4-(2-fluoro-6-hydroxy-3-methoxybenzoyl)benzamido]phenyl}pyridine-4-carboxamide] yielded an EC50 in the test on Primary Neurons (Primary neuron) of 10.4 µM. Besides, the activity at 0.078 µM in test [1] (78 nM) came to 97.8%. For the same compound, the activity at 0.156 µM in test [1] (156 nM) came to 102%. The activity at 0.312 µM in test [1] (312 nM) is 97.2%. In test [1] (625 nM), the activity at 0.625 µM was 102%. The activity at 1.25 µM in test [1] (1.25 μM) came out at 102%. Besides, the activity at 2.5 µM in test [1] (2.5 μM) was 113%. In test [1] (5 μM), the activity at 5 µM came out at 116%. The activity at 10 µM in test [1] (10 μM) was 124%. Moreover, the activity at 20 µM in test [1] (20 μM) came to 132%.

By EC50 is commonly meant the concentration giving half of the maximal effect.
